Measured values taken from patent US20250304585A1, “SULFAMATE BASED COVALENT LIGAND-DIRECTED RELEASE (COLDR) COMPOUNDS” (priority 2022, published 2025).
Values joined by “and” are separate entries in the source; they are usually repeats but may differ in a detail not shown here. Equal entries are not always repeated. Where two headings read alike, the source gives them in different places.

Legend:
EGFR = EGFR (Homo sapiens (Human), UniProt P00533); assay: In vitro kinase activity assay with EGFR; assay type: biochemical; settings: for EGFR/BTK: ratio of off-target/BTK IC50
BTK [1] = target: T1, BTK (Homo sapiens (Human), UniProt Q06187); assay: In vitro kinase activity assay; assay type: biochemical
BTK C481S mutant = BTK C481S mutant (Homo sapiens (Human), UniProt Q06187, C481S); assay: In vitro kinase activity assay with BTK C481S mutant; assay type: biochemical; settings: for C481S/BTK: ratio of off-target/BTK IC50
BTK kinase domain = BTK kinase domain (Homo sapiens (Human), UniProt Q06187); assay: In-vitro labeling of recombinant BTK, intact protein LC/MS; assay type: binding; settings: 2 μM BTK, 2 μM compound
Mino cells [2] = assay: Proteomic reactivity of model alkyne probes; assay type: cell-based; settings: compared with 2b
[3] = GSH reactivity (consumption) assay; assay type: physicochemical; settings: for GSH reactivity relative to chloroacetamide (1a): model compounds; for covalent bond formation with GSH: assay conditions or up to 37° C. for 24 h
[4] = Metabolic stability with human liver microsomes; settings: five-minute incubation
Mino cells [5] = assay: Competitive pull-down proteomics; assay type: cell-based; settings: 1 μM, fold-enrichment>4 and p-value<0.05
BTK [6] = target: T1, BTK; assay: BTK activity (autophosphorylation) in Mino cells; assay type: cell-based; settings: anti-IgM activation, read-out: IC50 of BTK autophosphorylation inhibition
Description: The cell pellets were subjected to immunoblotting and performed Western blots for p-BTK, BTK and β-actin.
Cell pellets were washed with ice-cold PBS and lysed using RIPA-buffer (Sigma, R0278). […] EZ-ECL Kit (Biological Industries, 20-500-1000) was used to detect HRP-activity.

[7] = tested on: TCL1 adoptive transfer mouse model for CLL; assay: TCL1 adoptive transfer mouse model for CLL; assay type: in vivo; settings: after two weeks of treatment
BTK [8] = target: BTK (Mus musculus (Mouse), UniProt P35991); assay: BTK engagement in treated mice spleens; assay type: in vivo
Description: Lysates were diluted to 2 mg/ml, […] per sample, and incubated for 1 h in room temperature with […] probe 4 to label BTK. Lysates were then clicked to TAMRA-azide and imaged using ChemiDoc MP (546 nm) as described in the In-gel fluorescence protocol.

[9] = 0.5 nM BTK, 5 μM ATP, read-out: BTK (IC50 μM)
[10] = BTK C481S mutant, read-out: C481S (IC50 μM)

BTK C481S mutant, sequence (Q06187 whole entry C481S, looked up, the tested form may be a part): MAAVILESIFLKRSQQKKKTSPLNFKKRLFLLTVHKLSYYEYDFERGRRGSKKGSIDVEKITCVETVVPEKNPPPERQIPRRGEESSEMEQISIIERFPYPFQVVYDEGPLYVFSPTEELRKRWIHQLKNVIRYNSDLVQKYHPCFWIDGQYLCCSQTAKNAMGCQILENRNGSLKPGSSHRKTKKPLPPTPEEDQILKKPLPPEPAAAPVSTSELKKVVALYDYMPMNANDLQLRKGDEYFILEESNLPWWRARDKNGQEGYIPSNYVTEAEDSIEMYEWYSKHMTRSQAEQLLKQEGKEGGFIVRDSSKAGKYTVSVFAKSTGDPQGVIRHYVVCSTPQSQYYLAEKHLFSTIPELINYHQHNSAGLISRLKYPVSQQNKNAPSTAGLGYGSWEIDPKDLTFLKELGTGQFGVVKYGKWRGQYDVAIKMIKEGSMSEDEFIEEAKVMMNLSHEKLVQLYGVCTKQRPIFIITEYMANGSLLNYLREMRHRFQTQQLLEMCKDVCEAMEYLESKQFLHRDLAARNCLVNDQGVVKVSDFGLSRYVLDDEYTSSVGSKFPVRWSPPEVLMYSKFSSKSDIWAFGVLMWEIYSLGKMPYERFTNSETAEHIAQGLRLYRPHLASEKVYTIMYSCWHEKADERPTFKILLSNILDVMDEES
T1 sequence (Q06187 whole entry, looked up): as the sequence (Q06187 whole entry C481S, looked up, the tested form may be a part) above, with S481C counted along it
EGFR, sequence (P00533 25-1210): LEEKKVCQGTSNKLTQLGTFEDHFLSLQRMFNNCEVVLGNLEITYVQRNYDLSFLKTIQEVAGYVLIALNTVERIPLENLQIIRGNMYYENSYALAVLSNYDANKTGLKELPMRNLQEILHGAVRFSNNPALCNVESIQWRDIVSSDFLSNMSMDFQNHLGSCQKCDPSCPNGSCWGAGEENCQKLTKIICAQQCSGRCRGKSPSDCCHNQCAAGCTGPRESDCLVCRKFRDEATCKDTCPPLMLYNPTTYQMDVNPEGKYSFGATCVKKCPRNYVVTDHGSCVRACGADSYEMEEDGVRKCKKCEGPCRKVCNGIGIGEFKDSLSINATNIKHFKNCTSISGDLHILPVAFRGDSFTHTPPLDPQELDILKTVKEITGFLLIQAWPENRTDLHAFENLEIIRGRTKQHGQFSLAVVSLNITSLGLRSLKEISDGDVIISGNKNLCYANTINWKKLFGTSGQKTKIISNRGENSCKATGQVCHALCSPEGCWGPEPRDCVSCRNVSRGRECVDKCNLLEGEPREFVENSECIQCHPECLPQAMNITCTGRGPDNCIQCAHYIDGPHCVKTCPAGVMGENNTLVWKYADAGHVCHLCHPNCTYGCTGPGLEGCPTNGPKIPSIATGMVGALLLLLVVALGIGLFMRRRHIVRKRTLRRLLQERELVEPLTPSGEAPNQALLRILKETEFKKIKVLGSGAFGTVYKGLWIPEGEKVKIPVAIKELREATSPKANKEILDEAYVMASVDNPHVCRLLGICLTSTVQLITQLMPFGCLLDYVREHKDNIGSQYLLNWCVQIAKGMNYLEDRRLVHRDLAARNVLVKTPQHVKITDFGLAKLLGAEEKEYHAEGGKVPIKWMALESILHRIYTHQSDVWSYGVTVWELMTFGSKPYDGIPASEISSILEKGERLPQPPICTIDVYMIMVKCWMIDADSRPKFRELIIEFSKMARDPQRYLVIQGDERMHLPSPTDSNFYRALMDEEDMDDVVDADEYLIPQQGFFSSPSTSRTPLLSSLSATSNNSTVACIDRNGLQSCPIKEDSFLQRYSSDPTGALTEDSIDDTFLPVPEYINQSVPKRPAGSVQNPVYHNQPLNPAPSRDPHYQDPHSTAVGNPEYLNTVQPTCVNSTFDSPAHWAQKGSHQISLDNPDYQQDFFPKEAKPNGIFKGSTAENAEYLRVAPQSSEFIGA
BTK kinase domain, sequence (Q06187 402-655): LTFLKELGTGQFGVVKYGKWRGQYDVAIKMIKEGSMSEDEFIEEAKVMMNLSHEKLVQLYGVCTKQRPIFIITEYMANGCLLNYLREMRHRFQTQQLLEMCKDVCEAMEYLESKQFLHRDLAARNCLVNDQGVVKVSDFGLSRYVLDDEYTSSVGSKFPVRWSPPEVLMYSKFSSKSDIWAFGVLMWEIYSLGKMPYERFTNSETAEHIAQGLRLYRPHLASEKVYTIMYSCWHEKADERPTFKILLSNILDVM
BTK (Mus musculus (Mouse), UniProt P35991), sequence (P35991 whole entry): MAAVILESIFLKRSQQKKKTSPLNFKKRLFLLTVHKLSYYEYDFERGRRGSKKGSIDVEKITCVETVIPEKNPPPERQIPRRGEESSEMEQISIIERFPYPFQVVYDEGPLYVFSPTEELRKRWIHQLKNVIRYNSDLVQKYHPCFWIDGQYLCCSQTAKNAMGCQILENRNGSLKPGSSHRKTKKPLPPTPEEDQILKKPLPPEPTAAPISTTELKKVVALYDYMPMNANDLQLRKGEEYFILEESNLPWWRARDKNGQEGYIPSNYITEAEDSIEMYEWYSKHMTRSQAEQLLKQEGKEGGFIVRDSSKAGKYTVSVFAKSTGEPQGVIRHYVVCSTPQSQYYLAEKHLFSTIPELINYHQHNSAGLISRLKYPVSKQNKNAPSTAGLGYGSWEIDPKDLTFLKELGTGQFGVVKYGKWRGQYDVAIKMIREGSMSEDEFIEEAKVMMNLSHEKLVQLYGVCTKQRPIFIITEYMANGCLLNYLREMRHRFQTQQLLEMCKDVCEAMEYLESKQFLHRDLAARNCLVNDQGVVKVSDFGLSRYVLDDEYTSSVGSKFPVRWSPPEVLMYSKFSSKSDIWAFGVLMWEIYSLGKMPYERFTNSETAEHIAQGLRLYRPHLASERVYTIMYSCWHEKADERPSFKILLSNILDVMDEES

SMILES: Nc1ncnc2c1c(-c1ccc(Oc3ccccc3)cc1)nn2[C@@H]1CCCN(C(=O)COS(=O)(=O)Nc2ccccc2)C1 [Compound 3e, (R)-2-(3-(4-amino-3-(4-phenoxyphenyl)-1H-pyrazolo[3,4-d]pyrimidin-1-yl)piperidin-1-yl)-2-oxoethyl phenylsulfamate]
- IC50 (EGFR): 1.96 µM
- EGFR/BTK (EGFR): 20.6
- fold weaker IC50 than Ibrutinib (BTK [1]): 10 fold
- IC50 (BTK [1]; [9]): 0.0949 µM and 0.095 µM
- IC50 (BTK [1]; read-out: IC50 against BTK): 0.1 µM
- IC50 (BTK C481S mutant; [10]): 0.275 µM
- C481S/BTK (BTK C481S mutant): 2.9

SMILES: CS(=O)(=O)CC(=O)N1CCC[C@@H](n2nc(-c3ccc(Oc4ccccc4)cc3)c3c(N)ncnc32)C1 [Compound 3f, (R)-1-(3-(4-amino-3-(4-phenoxyphenyl)-1H-pyrazolo[3,4-d]pyrimidin-1-yl)piperidin-1-yl)-2-(methylsulfonyl)ethan-1-one]
- covalent labeling of BTK (LC/MS) (BTK kinase domain): failed to react covalently with BTK

SMILES: C#Cc1ccc(NC(=O)CCl)cc1 [Compound 2c, 2-chloro-N-(4-ethynylphenyl)acetamide]
- proteomic reactivity (proteins enriched) (Mino cells [2]): enriching more proteins

SMILES: C#CCOS(=O)(=O)N1CCC[C@@H](n2nc(-c3ccc(Oc4ccccc4)cc3)c3c(N)ncnc32)C1 [Compound 3j, prop-2-yn-1-yl (R)-3-(4-amino-3-(4-phenoxyphenyl)-1H-pyrazolo[3,4-d]pyrimidin-1-yl)piperidine-1-sulfonate]
- reaction with GSH ([3]; same conditions as Ibrutinib): did not undergo any reaction with GSH

SMILES: CNS(=O)(=O)OCC(=O)N1CCC[C@@H](n2nc(-c3ccc(Oc4ccccc4)cc3)c3c(N)ncnc32)C1 [Compound 3c, (R)-2-(3-(4-amino-3-(4-phenoxyphenyl)-1H-pyrazolo[3,4-d]pyrimidin-1-yl)piperidin-1-yl)-2-oxoethyl methylsulfamate]
- remained intact after incubation with human liver microsomes [4]: over 30%
- IC50 (EGFR): 0.241 µM
- EGFR/BTK (EGFR): 27.9
- number of off-targets (competitive pull-down) (Mino cells [5]): 6
- IC50 (BTK [6]): 3.6 nM
- IC50 (BTK [1]; [9]): 0.00864 µM and 0.0086 µM
- IC50 (BTK [1]; read-out: IC50 against BTK): ~0.01 µM
- IC50 (BTK C481S mutant): 0.74 µM
- fold potency lost against the C481S mutant (BTK C481S mutant): 30-85 fold
- C481S/BTK (BTK C481S mutant): 85.6
- spleen size [7]: visually smaller
- BTK engagement in vivo (ibrutinib-alkyne probe labeling of spleen lysate) (BTK [8]): do not show probe labeling

SMILES: CNS(=O)(=O)OCC(=O)NCc1ccccc1 [Compound 1d, 2-(benzylamino)-2-oxoethyl methylsulfamate]
- GSH reactivity relative to chloroacetamide (1a) [3]: an order of magnitude less reactivity

SMILES: CS(=O)(=O)CC(=O)NCc1ccccc1 [Compound 1i, N-benzyl-2-(methylsulfonyl)acetamide]
- covalent bond formation with GSH [3]: did not form a covalent bond with GSH

SMILES: Nc1ncnc2c1c(-c1ccc(Oc3ccccc3)cc1)nn2[C@@H]1CCCN(C(=O)CS(=O)(=O)c2ccccc2)C1 [Compound 3g, (R)-1-(3-(4-amino-3-(4-phenoxyphenyl)-1H-pyrazolo[3,4-d]pyrimidin-1-yl)piperidin-1-yl)-2-(phenylsulfonyl)ethan-1-one]
- covalent labeling of BTK (LC/MS) (BTK kinase domain): failed to react covalently with BTK

SMILES: Nc1ncnc2c1c(-c1ccc(Oc3ccccc3)cc1)nn2[C@@H]1CCCN(C(=O)COS(=O)(=O)NCc2ccccc2)C1 [Compound 3d, (R)-2-(3-(4-amino-3-(4-phenoxyphenyl)-1H-pyrazolo[3,4-d]pyrimidin-1-yl)piperidin-1-yl)-2-oxoethyl benzylsulfamate]
- IC50 (EGFR): 0.533 µM
- EGFR/BTK (EGFR): 22.0
- number of off-targets (competitive pull-down) (Mino cells [5]): 20
- IC50 (BTK [1]; [9]): 0.0242 µM and 0.024 µM
- IC50 (BTK [1]; read-out: IC50 against BTK): ~0.01 µM
- fold potency lost against the C481S mutant (BTK C481S mutant): 30-85 fold
- IC50 (BTK C481S mutant; [10]): 1.28 µM
- C481S/BTK (BTK C481S mutant): 52.8

SMILES: C#Cc1ccc(NC(=O)COS(=O)(=O)NCc2ccccc2)cc1 [Compound 2a, 2-((4-ethynylphenyl)amino)-2-oxoethyl benzylsulfamate]
- proteomic reactivity (proteins enriched) (Mino cells [2]): enriching more proteins

SMILES: O=C(CS(=O)(=O)c1ccccc1)NCc1ccccc1 [Compound 1j, N-benzyl-2-(phenylsulfonyl)acetamide]
- covalent bond formation with GSH [3]: did not form a covalent bond with GSH

SMILES: O=C(COS(=O)(=O)NCc1ccccc1)NCc1ccccc1 [Compound 1e, 2-(benzylamino)-2-oxoethyl benzylsulfamate]
- GSH reactivity relative to chloroacetamide (1a) [3]: an order of magnitude less reactivity

SMILES: CS(=O)(=O)OCC(=O)N1CCC[C@@H](n2nc(-c3ccc(Oc4ccccc4)cc3)c3c(N)ncnc32)C1 [Compound 3b, (R)-2-(3-(4-amino-3-(4-phenoxyphenyl)-1H-pyrazolo[3,4-d]pyrimidin-1-yl)piperidin-1-yl)-2-oxoethyl methanesulfonate]
- IC50 (BTK [6]): 6 nM
- IC50 (BTK [1]; [9]): 0.0464 µM and 0.046 µM
